Experimental data taken from ChEMBL document CHEMBL1201862, “PubChem BioAssay data set” (2004).
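Growth conditions: 96-well plates. Treatment: test compound, 48 hours, 5 concentrations. Analysis: linear interpolation between bracketing concentrations; unreached endpoints set to highest concentration. GI50 = concentration required for 50% inhibition of growth.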 Calls of active or inactive are those of the source. Rule as the data show it: active = GI50 up to about 1.1 µM and inactive = higher.

What was measured:
Test in all cases: NCI tumour cell line growth inhibition, 48 h
DMS-114 = system: DMS-114
HCT-116 = system: HCT-116
RPMI-8226 = system: RPMI-8226
SNB-19 = system: SNB-19
RXF 393 = system: RXF 393
IGROV-1 = system: IGROV-1
A498 = system: A498
OVCAR-4 = system: OVCAR-4
KM12 = system: KM12
SF-268 = system: SF-268
SW-620 = system: SW-620
OVCAR-5 = system: OVCAR-5
SF-295 = system: SF-295
HT-29 = system: HT-29
CCRF-CEM = system: CCRF-CEM
M14 = system: M14
HCC 2998 = system: HCC 2998
SK-OV-3 = system: SK-OV-3
NCI-H226 = system: NCI-H226

Structure (SMILES)	GI50 (DMS-114)	GI50 (HCT-116)	GI50 (RPMI-8226)	GI50 (SNB-19)	GI50 (RXF 393)	GI50 (IGROV-1)	GI50 (A498)	GI50 (OVCAR-4)	GI50 (KM12)	GI50 (SF-268)	GI50 (SW-620)	GI50 (OVCAR-5)	GI50 (SF-295)	GI50 (HT-29)	GI50 (CCRF-CEM)	GI50 (M14)	GI50 (HCC 2998)	GI50 (SK-OV-3)	GI50 (NCI-H226)
C=C(C)CC(C(=O)O)c1ccc(C)cc1 (configuration not stated)	> 100 µM (inactive)	> 100 µM (inactive)	> 100 µM (inactive)	> 100 µM (inactive)	> 100 µM (inactive)	> 100 µM (inactive)	> 100 µM (inactive)	> 100 µM (inactive)	> 100 µM (inactive)	> 100 µM (inactive)	> 100 µM (inactive)	> 100 µM (inactive)	> 100 µM (inactive)	> 100 µM (inactive)					
COc1cc(Nc2nc3cc(C(F)(F)F)ccc3nc2-c2ccccc2)cc(OC)c1OC	> 100 µM (inactive)	> 10 µM (inactive)			18.1 µM (inactive)	27 µM (inactive)	> 100 µM (inactive)	5.82 µM (inactive)	> 100 µM (inactive)	> 100 µM (inactive)	> 100 µM (inactive)	> 100 µM (inactive)	54.6 µM (inactive)	> 100 µM (inactive)	> 100 µM (inactive)	> 100 µM (inactive)	> 100 µM (inactive)	31.6 µM (inactive)	> 100 µM (inactive)
NC(=O)/N=C1\NC(Cc2ccccc2)C(=O)N1Cc1ccccc1 (configuration not stated)	> 100 µM (inactive)	> 100 µM (inactive)	> 100 µM (inactive)	> 100 µM (inactive)	> 100 µM (inactive)	> 100 µM (inactive)		> 100 µM (inactive)	> 100 µM (inactive)	> 100 µM (inactive)	> 100 µM (inactive)	> 100 µM (inactive)	> 100 µM (inactive)	> 100 µM (inactive)	> 100 µM (inactive)	> 100 µM (inactive)	> 100 µM (inactive)	> 100 µM (inactive)	> 100 µM (inactive)
S=C1OC2CCCC[C@H]2O1 (some centres not stated)	> 100 µM (inactive)	> 100 µM (inactive)	> 100 µM (inactive)	> 100 µM (inactive)	> 100 µM (inactive)	> 100 µM (inactive)		> 100 µM (inactive)	> 100 µM (inactive)	> 100 µM (inactive)	> 100 µM (inactive)	> 100 µM (inactive)	> 100 µM (inactive)	> 100 µM (inactive)	> 100 µM (inactive)	> 100 µM (inactive)	> 100 µM (inactive)	> 100 µM (inactive)	> 100 µM (inactive)
CCOc1cccc2cccnc12	> 100 µM (inactive)	> 100 µM (inactive)	> 100 µM (inactive)	> 100 µM (inactive)	> 100 µM (inactive)	> 100 µM (inactive)		> 100 µM (inactive)	> 100 µM (inactive)	> 100 µM (inactive)	> 100 µM (inactive)	> 100 µM (inactive)	> 100 µM (inactive)	> 100 µM (inactive)	> 100 µM (inactive)	> 100 µM (inactive)	> 100 µM (inactive)	> 100 µM (inactive)	> 100 µM (inactive)
Nc1ccc2c(c1)CC1c3ccccc3C(C2)c2ccccc21	> 100 µM (inactive)	> 100 µM (inactive)	34.6 µM (inactive)	> 100 µM (inactive)	> 100 µM (inactive)	> 100 µM (inactive)	> 100 µM (inactive)	> 100 µM (inactive)	> 100 µM (inactive)	> 100 µM (inactive)	> 100 µM (inactive)	> 100 µM (inactive)	> 100 µM (inactive)	> 100 µM (inactive)	47.3 µM (inactive)	> 100 µM (inactive)	> 100 µM (inactive)	> 100 µM (inactive)	
CN(C)CN(C)c1nc(N(C)C)nc(N(C)C)n1	90.2 µM (inactive)	> 100 µM (inactive)	> 100 µM (inactive)	> 100 µM (inactive)	61.1 µM (inactive)	> 100 µM (inactive)	> 100 µM (inactive)	> 100 µM (inactive)	> 100 µM (inactive)	> 100 µM (inactive)	> 100 µM (inactive)	> 100 µM (inactive)	> 100 µM (inactive)	> 100 µM (inactive)	> 100 µM (inactive)	> 100 µM (inactive)	> 100 µM (inactive)	> 100 µM (inactive)	
CC1=NC(C(C)C)C(=O)O1 (configuration not stated)	24.6 µM (inactive)	18.5 µM (inactive)	22.1 µM (inactive)	> 100 µM (inactive)		> 100 µM (inactive)	> 100 µM (inactive)	> 100 µM (inactive)	> 100 µM (inactive)	45.1 µM (inactive)	13.1 µM (inactive)	> 100 µM (inactive)	> 100 µM (inactive)	61.1 µM (inactive)	> 100 µM (inactive)	> 100 µM (inactive)	> 100 µM (inactive)	> 100 µM (inactive)	> 100 µM (inactive)
Cc1ccc2ccc(-c3ccccc3)c3c2c1C(=O)c1ccccc1C3=O	> 100 µM (inactive)	> 100 µM (inactive)	> 100 µM (inactive)	64.1 µM (inactive)	61 µM (inactive)	> 100 µM (inactive)	74 µM (inactive)		> 100 µM (inactive)	45.5 µM (inactive)	> 100 µM (inactive)	> 100 µM (inactive)	93.1 µM (inactive)	> 100 µM (inactive)	> 100 µM (inactive)	79.8 µM (inactive)	> 100 µM (inactive)	41.7 µM (inactive)	> 100 µM (inactive)
CSC1=NC=CCN1C	> 100 µM (inactive)	> 100 µM (inactive)	> 100 µM (inactive)	> 100 µM (inactive)		> 100 µM (inactive)	> 100 µM (inactive)	> 100 µM (inactive)	> 100 µM (inactive)	> 100 µM (inactive)	> 100 µM (inactive)	> 100 µM (inactive)	> 100 µM (inactive)	> 100 µM (inactive)	> 100 µM (inactive)	> 100 µM (inactive)	> 100 µM (inactive)	> 100 µM (inactive)	> 100 µM (inactive)
CN(C)CC(=O)N1CCc2c([nH]c3ccccc23)C1c1cccnc1 (configuration not stated)	> 100 µM (inactive)	> 100 µM (inactive)	> 100 µM (inactive)	> 100 µM (inactive)		> 100 µM (inactive)	> 100 µM (inactive)	> 100 µM (inactive)	> 100 µM (inactive)	> 100 µM (inactive)	> 100 µM (inactive)	> 100 µM (inactive)	0.0498 µM (active)	> 100 µM (inactive)	> 100 µM (inactive)	> 100 µM (inactive)	> 100 µM (inactive)	> 100 µM (inactive)	
CCCCCCCCC(=O)CCCCCCCCC(=O)O	23 µM (inactive)	21.6 µM (inactive)	16.7 µM (inactive)	61.1 µM (inactive)	27.4 µM (inactive)	18.7 µM (inactive)	23.9 µM (inactive)	50.2 µM (inactive)	17.3 µM (inactive)	23.9 µM (inactive)	39.7 µM (inactive)	24.8 µM (inactive)	26.4 µM (inactive)	23 µM (inactive)	28.6 µM (inactive)	32.1 µM (inactive)		> 100 µM (inactive)	27.2 µM (inactive)
COC1CCCc2c(OC(C)=O)ccc(OC(C)=O)c21 (configuration not stated)	> 100 µM (inactive)	> 100 µM (inactive)		> 100 µM (inactive)	> 100 µM (inactive)	> 100 µM (inactive)		35 µM (inactive)	> 100 µM (inactive)	> 100 µM (inactive)	> 100 µM (inactive)	> 100 µM (inactive)				> 100 µM (inactive)	> 100 µM (inactive)	> 100 µM (inactive)	> 100 µM (inactive)
O=S(O)CCCCSSCc1ccccc1CSSCCCCS(=O)O	14.9 µM (inactive)		10.8 µM (inactive)	56.2 µM (inactive)	7.94 µM (inactive)	49.4 µM (inactive)	40.7 µM (inactive)	4.21 µM (inactive)	19 µM (inactive)	12.5 µM (inactive)	25.8 µM (inactive)	95.1 µM (inactive)	17 µM (inactive)	8.34 µM (inactive)	3.88 µM (inactive)	10.3 µM (inactive)	19 µM (inactive)	> 100 µM (inactive)	
O=C(O)c1ccccc1NS(=O)(=O)c1ccc(Cl)cc1	> 100 µM (inactive)	> 100 µM (inactive)	> 100 µM (inactive)	> 100 µM (inactive)	> 100 µM (inactive)	> 100 µM (inactive)		> 100 µM (inactive)		> 100 µM (inactive)	> 100 µM (inactive)	> 100 µM (inactive)		> 100 µM (inactive)	> 100 µM (inactive)	> 100 µM (inactive)	> 100 µM (inactive)	> 100 µM (inactive)	> 100 µM (inactive)
C=C1C(=O)O[C@H]2[C@H]1[C@H](OC(=O)/C(C)=C\C)CC(=C)[C@@H]1[C@H](O)[C@H]3O[C@@]3(C)[C@@]12O [EUPATUNDIN]	> 100 µM (inactive)	> 100 µM (inactive)	> 100 µM (inactive)	> 100 µM (inactive)		> 100 µM (inactive)		> 100 µM (inactive)	> 100 µM (inactive)	> 100 µM (inactive)	> 100 µM (inactive)		> 100 µM (inactive)	> 100 µM (inactive)	> 100 µM (inactive)	> 100 µM (inactive)	> 100 µM (inactive)	> 100 µM (inactive)	
